Entries after “also recorded” stand apart in the source; their conditions may differ.
Assays:
[1] = tested on: PPC1, human prostate cancer; test: Thapsigargin-induced death of PPC1 cells, ATP content assay; type: cell-based
Protocol: (§1) In addition to CSM14.1 cells, when tested at 25 μM, Compound 5962123 protected by >50% against thapsigargin-induced death of several tumor cell lines (HeLa human cervical cancer, SW1 melanoma cell, PPC1, human prostate cancer), mouse neural stem cell C17.2 (both differentiated [neuronal phenotype] and non-differentiated [stem cell phenotype]) as determined by ATP content assay, and primary rat cortical neurons as determined by microscopy assay measuring the percentage of NeuN-immunopositive cells with either normal or apoptotic nuclear morphology (Hoechst dye staining).
(§2) For PC12, cells were stimulated with 20 ng/ml NGF for five days; for C17.2, cells were stimulated with serum reduction, and 1% N2 incubation for three days; for CSM14.1, cells were cultured at 39° C. for 5-7 days.

Jurkat human T-leukemia = test: Thapsigargin-induced death of Jurkat cells, ATP content assay; type: cell-based; settings: 25 μM
Protocol: To explore whether compounds broadly protect cells of various lineages versus only neuronal cells, we tested all 26 hits for ability to rescue CSM14.1 (neuronal), and Jurkat (lymphoid), cell lines from cell death induced by TG. […] CSM 14.1 (FIG. 15, left) and Jurkat cells (FIG. 15, right) were cultured overnight at 3,000 cells per well or at 30,000 cells per well, respectively, in 96-well plates. Wells received DMSO alone or 25 μM compounds in DMSO, followed by treatment with or without TG (15 μM). After culturing for 24 hrs, ATP content was determined, expressing data as a percentage control relative to cells treated only with DMSO (mean ±SD; n=3). The data reveal that one of the compounds protects CSM14.1 but not Jurkat cells from TG-induced cell death (as measured by the ATPlite assay). […]
as §1, with “staining). […]” for “staining).”

[2] = tested on: PC12 rat pheochromocytoma cells; test: Thapsigargin-induced death of PC12 cells (undifferentiated and differentiated), ATP content assay; type: cell-based; parameters: key to Cytoprotective activity, PC12 (Result): +indicates >50% rescue of cell viability relative to untreated cells not exposed to thapsigargin at compound concentration of ≦25 μM; E indicates compound enhanced thapsigargin-induced death
Protocol: as §1, §2

[3] = tested on: mouse neural stem cell C17.2; test: Thapsigargin-induced death of C17.2 cells (undifferentiated and differentiated), ATP content assay; type: cell-based
Protocol: as §1, §2

[4] = tested on: primary rat cortical neurons; test: Thapsigargin-induced death of primary cortical neurons, microscopy assay (NeuN, Hoechst); type: cell-based
Protocol: as §1
Description of secondary screens. The secondary screens used to characterize compound 5962123 (many of which were used to characterize all 11 benzodiazepines) are outlined above. Thirty-one secondary screens have been used to date to characterize compound 5962123. […] Finally, compound 2878746 inhibits thapsigargin-induced cell death of rat primary cortical neurons (identified by staining with NeuN), as determined by counting apoptotic […] (NeuN)-positive cells stained with the DNA-binding fluorochrome Hoechst dye to identify cells with condensed nuclear morphology indicative of apoptosis and evidence of neurite retraction.

ATF6 = ATF6 proteolytic processing (immunoblotting); type: cell-based, rat; settings: immunoblotting to detect cleaved form; listed as CID-2878746
Description: After confirming the pathway selectivity of compounds, additional downstream assays can be performed to map the specific signal transduction pathway inhibited by the compounds. In this regard, various antibody reagents are commercially available for assessing the status of the three major pathways known to be activated by ER stress: (1) PERK, (2) Ire1, and (3) ATF6 (Xu et al., J. Clinical Invest., 115:2656-2664, 2005). Immunoblotting experiments can be performed to assess the expression or phosphorylation (using phospho-specific antibodies) of marker proteins in these pathways. […] Cell lysates were prepared and analyzed by SDS-PAGE/immunoblotting using antibodies specific for phospho-c-Jun, phospho-eIF2α, phospho-p38 MAPK, and tubulin (a loading control). […] After two hrs, cell lysates were prepared, normalized for protein content, and either analyzed by SDS-PAGE/immunoblotting using anti-p38-MAPK pan-reactive antibody or phospho-specific antibody with ECL-based detection, followed by densitometry analysis of x-ray films, normalizing phosphor-p38 MAPK relative to total p38 MAPK, or analyzed using a meso-scale instrument from MSD and a procedure in which total p38 MAPK is captured on plates, and the relative amounts of phosphorylated protein were determined using phospho-specific antibody (MSD catalog #K15112D1). […]

[5] = tested on: protein phosphatase 2B (Calcineurin); test: In vitro phosphatase assay with immunoprecipitated ASK1 (ser 967 site) as substrate; type: biochemical; settings: 100 μM

Q: Which results are given for `CCN(CC)c1ccc(C2Nc3ccccc3NC3=C2C(=O)CC(c2ccccc2)C3)cc1` (stereo not drawn) [Compound 5962123, 6-(4-diethylaminophenyl)-9-phenyl-5,6,8,9,10,11-hexahydrobenzo[c][1,5]benzodiazepin-7-one]?
A: Protection against thapsigargin-induced death, PPC1 ([1]; 25 μM, ATP content assay): > 50%; Cytoprotective activity in thapsigargin-treated PPC-1 ([1]; ATP content assay): demonstrated; Cytoprotective activity, PPC1 (Result) ([1]; thapsigargin 15 μM, ATP content, compound ≦25 μM): + (+indicates >50% rescue of cell viability relative to untreated cells not exposed to thapsigargin at compound concentration of ≦25 μM); Protection of Jurkat cells from thapsigargin-induced cell death (Jurkat human T-leukemia): does not protect; also recorded: inactive; Protection of PC12 cells from thapsigargin-induced cell death ([2]; 25 μM, undifferentiated or differentiated as stated, ATP content assay): does not protect; Effect on thapsigargin-treated undifferentiated PC12 cells ([2]; undifferentiated PC12): paradoxical cell death-promoting activity; Cytoprotective activity, PC12 (Result) ([2]; undifferentiated, thapsigargin 15 μM, ATP content, compound ≦25 μM): E; Activity in differentiated C17.2 cells treated with thapsigargin ([3]; 25 μM, ATP content assay): confirmed; Protection against thapsigargin-induced death, C17.2 ([3]; 25 μM, both differentiated and non-differentiated, ATP content assay): > 50%; Cytoprotective activity, C17.2 diff (Result) ([3]; differentiated, thapsigargin 10 μM, ATP content, compound ≦25 μM): + (+indicates >50% rescue of cell viability relative to untreated cells not exposed to thapsigargin at compound concentration of ≦25 μM); Cytoprotective activity, C17.2 (Result) ([3]; undifferentiated, thapsigargin 10 μM, ATP content, compound ≦25 μM): + (+indicates >50% rescue of cell viability relative to untreated cells not exposed to thapsigargin at compound concentration of ≦25 μM); Protection against thapsigargin-induced death, primary rat cortical neurons ([4]; 25 μM, microscopy, NeuN-immunopositive cells, Hoechst nuclear morphology): > 50%; Inhibition of thapsigargin-induced cell death of rat primary cortical neurons ([4]; counting apoptotic NeuN-positive cells, Hoechst dye): inhibits; ATF6 proteolytic processing (ATF6): not inhibited; Activity of protein phosphatase 2B (Calcineurin) [5]: did not affect
